Assay results taken from patent US6608064B2, “Pharmaceutical agents for the treatment of Parkinson's disease, ADHD and microadenomas” (Pfizer Inc, priority 1998, dated 2003).

Tested on: MPTP-(1-methyl-4-phenyl-1,2,3,6-tetrahydropyridine) treated monkeys
Experiment: Parkinsonian score in MPTP-treated monkeys after administration of sunipetron
Type: in vivo
Conditions: 0.5 mg/kg or 1.0 mg/kg, rated at 4 time points vs vehicle, estimated plasma levels (FIG. 1)
Method: Neurol., 35:655-661, 1994, and Klockgether et al., Ann. Neurol., 30:717-723, 1991.
The behavioral effects of administration of sunipetron on parkinsonian score in MPTP-(1-methyl-4-phenyl-1,2,3,6-tetrahydropyridine) treated monkeys was determined. The methods employed are described in Greenemyre et al., supra and Klockgether et al., supra.
Briefly, parkinsonian monkeys were administered 0.5 mg/kg or 1.0 mg/kg of sunipetron and the severity of parkinsonian symptoms was rated at each of 4 time points after drug administration as compared with administration of a control solution (“Vehicle”).
The minimum effective plasma level was approximately 100 ng/ml.

Structure (SMILES): O=C1CCC(=O)N1C[C@H]1CC[C@H]2CN(c3ncccn3)CCN2C1 [sunipetron]
- minimum effective plasma level (reduction in parkinsonian score): approximately 100 ng/ml
- plasma level at which the maximum reduction in parkinsonian score was attained: approximately 200 ng/ml
